In one assay the test system is A549 cells. Nature of the assay: Proliferation Assay (A549 viability, Cell Titer Fluor, 72 hours). The format is cell-based. The conditions noted are these: Homo sapiens. In short, it runs like this: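 A549 cells seeded at 1000 cells/well, rested 24 h, then exposed to compound in 0.5% DMSO for 72 h at 37 °C. Viability read by Cell Titer Fluor fluorescence; IC50 from four-parameter logistic fit.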

The target of assay [1] is purified recombinant human GAC (GLS1) (Homo sapiens (Human), UniProt O94925). Nature of the assay: GLS1 Enzymatic Activity Assay (dual-coupled enzymatic assay, resorufin/Amplex UltraRed readout).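 Also: glutamate from GAC coupled via glutamate oxidase and peroxidase to resorufin, read as fluorescence (ex 530, em 590 nm) kinetically or at 20 min, four-parameter logistic IC50 fit.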 The format is biochemical.
Sequence of purified recombinant human GAC (GLS1) (O94925 other isoform, or with tags, fused parts or gaps): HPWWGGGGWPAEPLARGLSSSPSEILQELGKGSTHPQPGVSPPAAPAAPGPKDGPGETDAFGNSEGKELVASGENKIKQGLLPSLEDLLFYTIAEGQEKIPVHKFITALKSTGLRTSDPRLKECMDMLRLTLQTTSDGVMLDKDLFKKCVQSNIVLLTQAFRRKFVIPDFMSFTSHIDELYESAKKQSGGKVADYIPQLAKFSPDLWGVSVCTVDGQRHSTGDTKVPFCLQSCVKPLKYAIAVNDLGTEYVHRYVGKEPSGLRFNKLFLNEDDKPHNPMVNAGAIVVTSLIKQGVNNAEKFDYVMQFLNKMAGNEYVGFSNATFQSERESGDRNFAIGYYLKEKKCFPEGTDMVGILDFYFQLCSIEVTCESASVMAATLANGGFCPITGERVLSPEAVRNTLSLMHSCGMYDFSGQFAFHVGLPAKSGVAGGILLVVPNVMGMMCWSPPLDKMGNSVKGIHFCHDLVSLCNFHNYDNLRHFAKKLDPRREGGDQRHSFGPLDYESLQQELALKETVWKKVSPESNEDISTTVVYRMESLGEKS

Regarding `Cc1ccc(CC(=O)Nc2cn(CCCCn3cc(C(=O)NCc4cccnc4)nn3)nn2)cn1` [Example 322, 1-(4-{4-[2-(6-methylpyridin-3-yl)acetamido]-1H-1,2,3-triazol-1-yl}butyl)-N-(pyridin-3-ylmethyl)-1H-1,2,3-triazole-4-carboxamide], in the assay on A549 cells (A549, 72 h), the EC50 is 500 to 5000 nM. For the same molecule, in assay [1], the IC50 is 100 to 500 nM.

`O=C(Cc1cccc(OC(F)(F)F)c1)Nc1cn(CC(F)CCn2cc(C(=O)NCc3ccccn3)nn2)nn1` (stereo not drawn) [Example 327, 1-[3-fluoro-4-(4-{2-[3-(trifluoromethoxy)phenyl]acetamido}-1H-1,2,3-triazol-1-yl)butyl]-N-(pyridin-2-ylmethyl)-1H-1,2,3-triazole-4-carboxamide] registered an EC50 in the assay with A549 cells (A549, 72 h) of less than 100 nM. Also, in assay [1], the IC50 was less than 100 nM.

In the assay on A549 cells (A549, 72 h), `Cc1ccc(CNC(=O)c2cn(CCC(F)Cn3cc(NC(=O)Cc4cccc(OC(F)(F)F)c4)nn3)nn2)cn1` (stereo not drawn) [Example 328, 1-[3-fluoro-4-(4-{2-[3-(trifluoromethoxy)phenyl]acetamido}-1H-1,2,3-triazol-1-yl)butyl]-N-[(6-methylpyridin-3-yl)methyl]-1H-1,2,3-triazole-4-carboxamide] showed an EC50 of less than 100 nM. In addition, the IC50 in assay [1] is less than 100 nM.

On to `O=C(CN1CC(F)C1)Nc1cn(CCCCn2cc(C(=O)NCc3cccc(OC(F)(F)F)c3)nn2)nn1` [Example 329, 1-(4-{4-[2-(3-fluoroazetidin-1-yl)acetamido]-1H-1,2,3-triazol-1-yl}butyl)-N-{[3-(trifluoromethoxy)phenyl]methyl}-1H-1,2,3-triazole-4-carboxamide], for which, in the assay on A549 cells (A549, 72 h), the EC50 was 500 to 5000 nM. In addition, the IC50 in assay [1] is 100 to 500 nM.

In the assay with A549 cells (A549, 72 h), `O=C(CN1CC(F)(F)C1)Nc1cn(CCCCn2cc(C(=O)NCc3cccc(OC(F)(F)F)c3)nn2)nn1` [Example 330, 1-(4-{4-[2-(3,3-difluoroazetidin-1-yl)acetamido]-1H-1,2,3-triazol-1-yl}butyl)-N-{[3-(trifluoromethoxy)phenyl]methyl}-1H-1,2,3-triazole-4-carboxamide] returned an EC50 of 100 to 500 nM. Further, the IC50 in assay [1] was less than 100 nM.

In turn, `O=C(CN1CCC(F)(F)C1)Nc1cn(CCCCn2cc(C(=O)NCc3cccc(OC(F)(F)F)c3)nn2)nn1` [Example 331, 1-(4-{4-[2-(3,3-difluoropyrrolidin-1-yl)acetamido]-1H-1,2,3-triazol-1-yl}butyl)-N-{[3-(trifluoromethoxy)phenyl]methyl}-1H-1,2,3-triazole-4-carboxamide] yielded an EC50 with A549 cells (A549, 72 h) of 100 to 500 nM. Also, in assay [1], the IC50 was less than 100 nM.

In turn, `O=C(CN1CCC(F)(F)CC1)Nc1cn(CCCCn2cc(C(=O)NCc3cccc(OC(F)(F)F)c3)nn2)nn1` [Example 332, 1-(4-(4-(2-(4,4-difluoropiperidin-1-yl)acetamido)-1H-1,2,3-triazol-1-yl)butyl)-N-(3-(trifluoromethoxy)benzyl)-1H-1,2,3-triazole-4-carboxamide] yielded an EC50 in the assay on A549 cells of 100 to 500 nM. Further, in assay [1], the IC50 was less than 100 nM.

As to `O=C(Cc1cccc(OC(F)(F)F)c1)Nc1cn(CCCCn2cc(C(=O)NCc3cc(Cl)ccc3F)nn2)nn1` [Example 334, N-[(5-chloro-2-fluorophenyl)methyl]-1-[4-(4-{2-[3-(trifluoromethoxy)phenyl]acetamido}-1H-1,2,3-triazol-1-yl)butyl]-1H-1,2,3-triazole-4-carboxamide], the EC50 in the assay with A549 cells (A549, 72 h) is less than 100 nM. Further, in assay [1], the IC50 is less than 100 nM.

For the molecule `Cc1ccc(CC(=O)Nc2cn(CCCCn3cc(C(=O)NCc4cc(OC(F)(F)F)ccc4F)nn3)nn2)cn1` [Example 335, N-{[2-fluoro-5-(trifluoromethoxy)phenyl]methyl}-1-(4-{4-[2-(6-methylpyridin-3-yl)acetamido]-1H-1,2,3-triazol-1-yl}butyl)-1H-1,2,3-triazole-4-carboxamide], the EC50 with A549 cells (A549, 72 h) is less than 100 nM. In addition, the IC50 in assay [1] is less than 100 nM.

In the assay with A549 cells (A549, 72 h), `Cc1ccc(CC(=O)Nc2cn(CCCCn3cc(C(=O)NCc4cc(Cl)ccc4F)nn3)nn2)cn1` [Example 336, N-[(5-chloro-2-fluorophenyl)methyl]-1-(4-{4-[2-(6-methylpyridin-3-yl)acetamido]-1H-1,2,3-triazol-1-yl}butyl)-1H-1,2,3-triazole-4-carboxamide] returned an EC50 of 100 to 500 nM. Besides, the IC50 in assay [1] was less than 100 nM.

Take `O=C(Cc1ccccn1)Nc1cn(CCCCn2cc(C(=O)NCc3cc(OC(F)(F)F)ccc3F)nn2)nn1` [Example 337, N-{[2-fluoro-5-(trifluoromethoxy)phenyl]methyl}-1-(4-{4-[2-(pyridin-2-yl)acetamido]-1H-1,2,3-triazol-1-yl}butyl)-1H-1,2,3-triazole-4-carboxamide]: the EC50 in the assay with A549 cells (A549, 72 h) is less than 100 nM. For the same molecule, the concentration for half-maximal inhibition (IC50) in assay [1] was less than 100 nM.

Consider `O=C(Cc1ccccn1)Nc1cn(CCCCn2cc(C(=O)NCc3cc(Cl)ccc3F)nn2)nn1` [Example 338, N-[(5-chloro-2-fluorophenyl)methyl]-1-(4-{4-[2-(pyridin-2-yl)acetamido]-1H-1,2,3-triazol-1-yl}butyl)-1H-1,2,3-triazole-4-carboxamide], for which the 50% effective concentration (EC50) with A549 cells (A549, 72 h) lay within 100 to 500 nM. Besides, in assay [1], the IC50 is less than 100 nM.

Turning to `O=C(Cc1cccc(OC(F)(F)F)c1)Nc1cn(CC(F)CCn2cc(C(=O)NCc3cccc(OC(F)(F)F)c3)nn2)nn1` (stereo not drawn) [Example 339, 1-[3-fluoro-4-(4-{2-[3-(trifluoromethoxy)phenyl]acetamido}-1H-1,2,3-triazol-1-yl)butyl]-N-{[3-(trifluoromethoxy)phenyl]methyl}-1H-1,2,3-triazole-4-carboxamide], the EC50 with A549 cells (A549, 72 h) is less than 100 nM. Further, the IC50 in assay [1] was less than 100 nM.

With `O=C(Cc1cccc(OC(F)(F)F)c1)Nc1cn(CC(F)CCn2cc(C(=O)NCc3cc(OC(F)(F)F)ccc3F)nn2)nn1` (stereo not drawn) [Example 340, 1-[3-fluoro-4-(4-{2-[3-(trifluoromethoxy)phenyl]acetamido}-1H-1,2,3-triazol-1-yl)butyl]-N-{[2-fluoro-5-(trifluoromethoxy)phenyl]methyl}-1H-1,2,3-triazole-4-carboxamide], the EC50 in the assay with A549 cells (A549, 72 h) was less than 100 nM. Further, the IC50 in assay [1] was less than 100 nM.

Take `O=C(Cc1cccc(OC(F)(F)F)c1)Nc1cn(CC(F)CCn2cc(C(=O)NCc3ncccc3F)nn2)nn1` (stereo not drawn) [Example 341, 1-[3-fluoro-4-(4-{2-[3-(trifluoromethoxy)phenyl]acetamido}-1H-1,2,3-triazol-1-yl)butyl]-N-[(3-fluoropyridin-2-yl)methyl]-1H-1,2,3-triazole-4-carboxamide]: the EC50 with A549 cells (A549, 72 h) fell in the range of 100 to 500 nM. Further, in assay [1], the IC50 is less than 100 nM.

Molecule `Cc1ccc(CC(=O)Nc2cn(CC(F)CCn3cc(C(=O)NCc4cccc(OC(F)(F)F)c4)nn3)nn2)cn1` (stereo not drawn) [Example 342, 1-(3-fluoro-4-{4-[2-(6-methylpyridin-3-yl)acetamido]-1H-1,2,3-triazol-1-yl}butyl)-N-{[3-(trifluoromethoxy)phenyl]methyl}-1H-1,2,3-triazole-4-carboxamide] displayed an EC50 in the assay with A549 cells (A549, 72 h) of less than 100 nM. In assay [1], the IC50 was less than 100 nM.

In the assay with A549 cells (A549, 72 h), `Cc1ccc(CC(=O)Nc2cn(CC(F)CCn3cc(C(=O)NCc4cc(OC(F)(F)F)ccc4F)nn3)nn2)cn1` (stereo not drawn) [Example 343, 1-(3-fluoro-4-{4-[2-(6-methylpyridin-3-yl)acetamido]-1H-1,2,3-triazol-1-yl}butyl)-N-{[2-fluoro-5-(trifluoromethoxy)phenyl]methyl}-1H-1,2,3-triazole-4-carboxamide] registered an EC50 of less than 100 nM. Moreover, in assay [1], the IC50 is less than 100 nM.

The molecule `Cc1ccc(CC(=O)Nc2cn(CC(F)CCn3cc(C(=O)NCc4ccccn4)nn3)nn2)cn1` (stereo not drawn) [Example 344, 1-(3-fluoro-4-{4-[2-(6-methylpyridin-3-yl)acetamido]-1H-1,2,3-triazol-1-yl}butyl)-N-(pyridin-2-ylmethyl)-1H-1,2,3-triazole-4-carboxamide] had a concentration for a half-maximal effect (EC50) in the assay with A549 cells (A549, 72 h) of more than 5000 nM. Also, in assay [1], the 50% inhibitory concentration (IC50) is 100 to 500 nM.

Consider `Cc1ccc(CC(=O)Nc2cn(CC(F)CCn3cc(C(=O)NCc4ncccc4F)nn3)nn2)cn1` (stereo not drawn) [Example 345, 1-(3-fluoro-4-{4-[2-(6-methylpyridin-3-yl)acetamido]-1H-1,2,3-triazol-1-yl}butyl)-N-[(3-fluoropyridin-2-yl)methyl]-1H-1,2,3-triazole-4-carboxamide], for which the EC50 with A549 cells (A549, 72 h) is more than 5000 nM. Besides, the IC50 in assay [1] lay within 100 to 500 nM.

`Cc1ccc(CNC(=O)c2cn(CCC(F)Cn3cc(NC(=O)Cc4ccc(C)nc4)nn3)nn2)cn1` (stereo not drawn) [Example 346, 1-(3-fluoro-4-{4-[2-(6-methylpyridin-3-yl)acetamido]-1H-1,2,3-triazol-1-yl}butyl)-N-[(6-methylpyridin-3-yl)methyl]-1H-1,2,3-triazole-4-carboxamide]: the half-maximal effective concentration (EC50) in the assay with A549 cells (A549, 72 h) lay within 500 to 5000 nM. Besides, the IC50 in assay [1] was less than 100 nM.

Molecule `O=C(Cc1ccccn1)Nc1cn(CC(F)CCn2cc(C(=O)NCc3cccc(OC(F)(F)F)c3)nn2)nn1` (stereo not drawn) [Example 347, 1-(3-fluoro-4-(4-(2-(pyridin-2-yl)acetamido)-1H-1,2,3-triazol-1-yl)butyl)-N-(3-(trifluoromethoxy)benzyl)-1H-1,2,3-triazole-4-carboxamide] displayed an EC50 in the assay with A549 cells (A549, 72 h) of less than 100 nM. Also, in assay [1], the IC50 is less than 100 nM.

Consider `O=C(CN1CC(F)C1)Nc1cn(CCCCn2cc(C(=O)NCc3cc(OC(F)(F)F)ccc3F)nn2)nn1` [Example 350, N-{[2-fluoro-5-(trifluoromethoxy)phenyl]methyl}-1-(4-{4-[2-(3-fluoroazetidin-1-yl)acetamido]-1H-1,2,3-triazol-1-yl}butyl)-1H-1,2,3-triazole-4-carboxamide], for which the EC50 in the assay with A549 cells (A549, 72 h) was in the range of 100 to 500 nM. In assay [1], the IC50 is 100 to 500 nM.

`O=C(CN1CC(F)(F)C1)Nc1cn(CCCCn2cc(C(=O)NCc3cc(Cl)ccc3F)nn2)nn1` [Example 352, N-[(5-chloro-2-fluorophenyl)methyl]-1-(4-{4-[2-(3,3-difluoroazetidin-1-yl)acetamido]-1H-1,2,3-triazol-1-yl}butyl)-1H-1,2,3-triazole-4-carboxamide]: in the assay with A549 cells (A549, 72 h), the EC50 is 500 to 5000 nM. The IC50 in assay [1] fell in the range of 100 to 500 nM.

As to `O=C(CN1CC(F)(F)C1)Nc1cn(CCCCn2cc(C(=O)NCc3cc(OC(F)(F)F)ccc3F)nn2)nn1` [Example 353, 1-(4-{4-[2-(3,3-difluoroazetidin-1-yl)acetamido]-1H-1,2,3-triazol-1-yl}butyl)-N-{[2-fluoro-5-(trifluoromethoxy)phenyl]methyl}-1H-1,2,3-triazole-4-carboxamide], in the assay on A549 cells (A549, 72 h), the EC50 was 100 to 500 nM. Besides, in assay [1], the IC50 was less than 100 nM.

For orientation: EC50 means the concentration giving half of the maximal effect. A low value points to greater potency. Usually IC50 stands for the concentration that gives 50% inhibition.

Values taken from patent US10344025B2, “GLS1 inhibitors for treating disease” (Board of Regents, The University of Texas System, priority 2014, dated 2019).
